Laboratory results from PMC7996082, “The translocator protein ligands as mitochondrial functional modulators for the potential anti-Alzheimer agents” (Journal of Enzyme Inhibition and Medicinal Chemistry, 2021).

Experiments:
[1] = Liver microsomal stability; type: in vitro ADME; conditions: human, liver microsomes, 1 µM compound, 0.5 mg/mL microsomes, 30 min, 37 °C; read-out: Human Liver Microsomal Stability (% remaining after 30 min)
Method: Liver microsomes (human, dog, rat, and mouse; 0.5 mg/mL) were incubated with 1 µM of each test compound in the presence of potassium phosphate buffer (PPB) for 5 min at 37 °C. A solution of the NADPH regeneration system (#44332000, Oriental Yeast Co., Japan) was added to begin metabolic reactions of liver microsomes. The resulting mixtures were incubated for 30 min at 37 °C, and the reaction was terminated by the addition of a cold MeCN solution containing an internal standard (chlorpropamide). The mixture was separated by centrifugation (14,000 rpm for 5 min at 4 °C), and the supernatant was analysed by LC-MS/MS (Shimadzu Nexera XR system and TSQ vantage; Thermo Scientific).

[2] = MTT assay: HT22 cell viability with compound alone; type: cell-based, mouse; conditions: mouse, HT22 cells; HT22 cell viability after 24 h of treatment with 5 μM compound, no Aβ
Method: To a clear 96-well plate (FALCON), the cultured HT-22 cells were seeded in a number of 5,000 per well 24 h prior to the assay. A solution of each test compound (5 µM, 25 µL) was added to each well. After 24 h of incubation at 37 °C, the cells were treated with a 10 µL of MTT solution (3–(4,5-dimethylthiazol-2-yl)-2,5-diphenyltetrazolium bromide, Sigma-Aldrich), incubated for 2 h at 37 °C, and were treated with 135 µL of MTT solubilising solution (10% Triton-X 100 in isopropanol with 0.1 M HCl) for 2 h at 37 °C. The % values of cell viability were determined by using the optical density (OD) values at 560 nm, and normalised by taking the vehicle control (5 µM of DMSO) as […].

CYP2D6 = biological target: T1, CYP2D6 (Homo sapiens, UniProt P10635); assay: CYP inhibition assay (Vivid CYP450 screening kit); type: in vitro ADME; conditions: 10 μM compound
T1 construct: purchased Invitrogen, Madison, WI, USA
T1 sequence (P10635 whole entry): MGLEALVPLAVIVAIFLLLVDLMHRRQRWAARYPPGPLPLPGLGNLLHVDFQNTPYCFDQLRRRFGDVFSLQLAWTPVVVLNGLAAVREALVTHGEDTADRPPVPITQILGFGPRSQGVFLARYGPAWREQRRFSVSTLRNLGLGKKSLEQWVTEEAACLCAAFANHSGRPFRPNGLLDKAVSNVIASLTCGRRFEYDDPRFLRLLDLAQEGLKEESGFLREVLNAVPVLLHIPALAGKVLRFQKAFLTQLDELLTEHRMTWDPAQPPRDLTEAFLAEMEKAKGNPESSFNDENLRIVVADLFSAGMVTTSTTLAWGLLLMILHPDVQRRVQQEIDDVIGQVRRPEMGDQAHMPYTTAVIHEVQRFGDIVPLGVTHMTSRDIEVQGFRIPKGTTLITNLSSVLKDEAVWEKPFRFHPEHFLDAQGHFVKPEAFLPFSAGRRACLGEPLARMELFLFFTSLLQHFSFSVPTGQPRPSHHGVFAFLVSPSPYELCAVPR
Method: (§1) Human CYP450 (CYP1A2, 2D6, 2C9, 2C19, and 3A4) activities were determined by using the Vivid® CYP450 screening kit (Invitrogen, Madison, WI, USA) in a clear 96-well plate. Five positive controls were used as 10 mM solutions in MeCN for five different CYP450 enzymes: CYP1A2 (α-naphthoflavone), CYP2D6 (quinidine), CYP2C9 (sulfaphenazole), CYP2C19 (lansoprazole), and CYP3A4 (ketoconazole). Each sample (test compounds, positive inhibition controls, and solvent controls) was added into each well with the Master Pre-Mix [CYP450 BACULOSOMES® Reagent (recombinant human CYP450 isozyme and rabbit NADPHP450 reductase) and Regeneration System (3.3 mM glucose-6-phosphate and 0.3 U/ml glucose-6-phosphate dehydrogenase in 100 mM potassium phosphate, pH 8.0)]. The mixture was incubated for 5 min at 37 °C, and the Vivid® CYP substrates and 0.1 mM NADP^+ buffer were added to initiate the CYP450 enzyme reaction. The % remaining activities of CYP450 were measured after 20 min by using a fluorescent plate reader (Flexstation® 3, Molecular Devices, USA).

CYP1A2 = biological target: T2, CYP1A2 (Homo sapiens, UniProt P05177); assay: CYP inhibition assay (Vivid CYP450 screening kit); type: in vitro ADME; conditions: 10 μM compound
T2 construct: purchased Invitrogen, Madison, WI, USA
T2 sequence (P05177 2-516 limits assumed): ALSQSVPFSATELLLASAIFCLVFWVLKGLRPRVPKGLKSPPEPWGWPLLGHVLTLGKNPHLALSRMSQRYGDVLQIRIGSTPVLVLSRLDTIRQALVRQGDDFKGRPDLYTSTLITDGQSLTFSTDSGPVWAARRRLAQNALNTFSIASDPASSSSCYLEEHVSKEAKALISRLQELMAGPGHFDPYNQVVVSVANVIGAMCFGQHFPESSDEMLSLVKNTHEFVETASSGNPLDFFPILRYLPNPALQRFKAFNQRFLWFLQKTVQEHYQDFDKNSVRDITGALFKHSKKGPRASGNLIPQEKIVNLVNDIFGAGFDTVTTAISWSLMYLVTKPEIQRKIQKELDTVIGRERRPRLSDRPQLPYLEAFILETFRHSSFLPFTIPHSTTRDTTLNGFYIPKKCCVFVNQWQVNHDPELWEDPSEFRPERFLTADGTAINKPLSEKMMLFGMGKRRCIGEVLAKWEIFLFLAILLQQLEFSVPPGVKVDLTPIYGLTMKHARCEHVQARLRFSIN
Method: as §1

CYP3A4 = biological target: T3, CYP3A4 (Homo sapiens, UniProt P08684); assay: CYP inhibition assay (Vivid CYP450 screening kit); type: in vitro ADME; conditions: 10 μM compound
T3 construct: purchased Invitrogen, Madison, WI, USA
T3 sequence (P08684 2-503 limits assumed): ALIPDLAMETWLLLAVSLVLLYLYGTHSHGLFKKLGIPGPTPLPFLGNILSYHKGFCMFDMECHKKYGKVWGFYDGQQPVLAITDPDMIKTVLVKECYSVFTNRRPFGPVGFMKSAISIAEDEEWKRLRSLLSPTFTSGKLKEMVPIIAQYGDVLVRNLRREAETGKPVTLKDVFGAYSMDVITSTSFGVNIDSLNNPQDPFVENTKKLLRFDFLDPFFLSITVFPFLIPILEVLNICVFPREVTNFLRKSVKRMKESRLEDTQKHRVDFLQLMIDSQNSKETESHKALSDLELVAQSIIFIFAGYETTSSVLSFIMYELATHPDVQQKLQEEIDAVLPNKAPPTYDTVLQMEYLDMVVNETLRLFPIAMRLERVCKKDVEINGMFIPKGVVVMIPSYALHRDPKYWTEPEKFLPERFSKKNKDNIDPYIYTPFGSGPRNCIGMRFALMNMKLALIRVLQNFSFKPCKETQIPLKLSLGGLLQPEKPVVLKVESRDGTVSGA
Method: as §1

CYP2C9 = biological target: T4, CYP2C9 (Homo sapiens, UniProt P11712); assay: CYP inhibition assay (Vivid CYP450 screening kit); type: in vitro ADME; conditions: 10 μM compound
T4 construct: purchased Invitrogen, Madison, WI, USA
T4 sequence (P11712 whole entry): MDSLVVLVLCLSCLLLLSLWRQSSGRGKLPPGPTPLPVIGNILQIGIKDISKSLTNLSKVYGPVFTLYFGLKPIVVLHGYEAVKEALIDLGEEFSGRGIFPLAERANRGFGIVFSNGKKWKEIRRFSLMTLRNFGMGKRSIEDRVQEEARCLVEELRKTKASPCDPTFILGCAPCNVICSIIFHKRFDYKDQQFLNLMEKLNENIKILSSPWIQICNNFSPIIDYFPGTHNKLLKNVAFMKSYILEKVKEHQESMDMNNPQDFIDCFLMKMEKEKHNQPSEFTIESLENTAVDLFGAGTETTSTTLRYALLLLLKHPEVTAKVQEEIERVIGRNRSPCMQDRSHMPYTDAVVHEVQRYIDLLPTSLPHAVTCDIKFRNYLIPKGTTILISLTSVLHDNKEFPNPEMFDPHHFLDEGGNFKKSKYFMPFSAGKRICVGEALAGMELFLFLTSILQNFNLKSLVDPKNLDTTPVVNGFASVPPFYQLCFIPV
Method: as §1

CYP2C19 = biological target: T5, CYP2C19 (Homo sapiens, UniProt P33261); assay: CYP inhibition assay (Vivid CYP450 screening kit); type: in vitro ADME; conditions: 10 μM compound
T5 construct: purchased Invitrogen, Madison, WI, USA
T5 sequence (P33261 whole entry): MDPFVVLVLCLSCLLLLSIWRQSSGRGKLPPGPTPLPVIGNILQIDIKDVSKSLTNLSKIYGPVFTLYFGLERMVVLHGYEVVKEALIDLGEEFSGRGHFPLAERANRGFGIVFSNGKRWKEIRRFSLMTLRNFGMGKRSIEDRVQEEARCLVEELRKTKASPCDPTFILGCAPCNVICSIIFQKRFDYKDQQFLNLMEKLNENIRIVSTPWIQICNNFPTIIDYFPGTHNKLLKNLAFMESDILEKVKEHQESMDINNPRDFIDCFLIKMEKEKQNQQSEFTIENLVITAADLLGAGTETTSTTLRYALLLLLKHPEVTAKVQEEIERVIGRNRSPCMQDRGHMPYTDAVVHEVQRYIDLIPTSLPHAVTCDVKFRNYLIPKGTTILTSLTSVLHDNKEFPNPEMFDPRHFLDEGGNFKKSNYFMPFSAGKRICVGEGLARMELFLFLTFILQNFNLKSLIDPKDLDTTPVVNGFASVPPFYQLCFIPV
Method: as §1

hERG channel = biological target: T6, hERG channel (Homo sapiens, UniProt Q12809); assay: hERG inhibition assay (automated patch-clamp, CHO-K1 Tet-On hERG cells); type: cell-based; conditions: patch-clamp, ± SD
T6 construct: host or cells: CHO-K1 Tet-On hERG cells
T6 sequence (Q12809 whole entry): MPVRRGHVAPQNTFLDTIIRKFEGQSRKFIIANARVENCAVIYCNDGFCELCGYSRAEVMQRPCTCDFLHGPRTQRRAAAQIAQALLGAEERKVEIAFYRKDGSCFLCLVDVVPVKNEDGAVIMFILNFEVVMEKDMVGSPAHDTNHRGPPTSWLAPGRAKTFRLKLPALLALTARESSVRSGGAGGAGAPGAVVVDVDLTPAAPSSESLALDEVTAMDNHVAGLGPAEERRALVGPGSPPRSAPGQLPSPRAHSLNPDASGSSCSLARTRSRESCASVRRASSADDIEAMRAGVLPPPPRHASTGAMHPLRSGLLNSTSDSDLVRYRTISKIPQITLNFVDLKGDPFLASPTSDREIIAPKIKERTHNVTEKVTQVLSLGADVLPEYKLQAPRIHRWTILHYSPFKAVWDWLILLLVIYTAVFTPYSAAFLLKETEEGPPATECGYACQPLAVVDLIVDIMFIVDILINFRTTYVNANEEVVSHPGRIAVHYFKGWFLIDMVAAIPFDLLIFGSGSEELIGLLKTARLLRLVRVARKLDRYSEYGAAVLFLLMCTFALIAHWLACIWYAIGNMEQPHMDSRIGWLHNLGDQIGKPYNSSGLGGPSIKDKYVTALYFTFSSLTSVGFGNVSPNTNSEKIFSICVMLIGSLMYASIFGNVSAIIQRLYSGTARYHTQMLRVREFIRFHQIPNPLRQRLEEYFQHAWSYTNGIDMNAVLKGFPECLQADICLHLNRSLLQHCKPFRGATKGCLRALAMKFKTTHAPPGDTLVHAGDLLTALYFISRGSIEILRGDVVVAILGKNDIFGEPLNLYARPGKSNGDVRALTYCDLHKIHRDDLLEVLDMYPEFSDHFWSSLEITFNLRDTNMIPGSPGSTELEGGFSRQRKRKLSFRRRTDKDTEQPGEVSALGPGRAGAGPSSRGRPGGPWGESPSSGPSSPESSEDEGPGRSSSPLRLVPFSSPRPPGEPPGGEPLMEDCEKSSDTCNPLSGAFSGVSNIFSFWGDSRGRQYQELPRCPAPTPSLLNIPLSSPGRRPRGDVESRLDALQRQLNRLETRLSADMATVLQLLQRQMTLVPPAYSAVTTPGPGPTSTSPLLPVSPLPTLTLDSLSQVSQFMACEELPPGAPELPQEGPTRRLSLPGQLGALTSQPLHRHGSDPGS
Method: For automated patch-clamp NPC-16 Patchliner (Nanion Technologies, München, Germany) recordings, CHO-K1 Tet-On hERG cells (IonGate Biosciences GmbH, Frankfurt, Germany) were plated into 100-mm cell culture dishes. Whole-cell currents were recorded with the intracellular solution containing: 50 mM KCl, 60 mM KF, 10 mM NaCl, 2 mM MgCl2, 20 mM EGTA and 10 mM HEPES (pH 7.2), and with the extracellular solution containing: 140 mM NaCl, 4 mM KCl, 2 mM CaCl2, 1 mM MgCl2, 5 mM Glucose and 10 HEPES (pH 7.4). To assist stable seal formations, the seal enhancer containing: 80 mM NaCl, 3 mM KCl, 35 mM CaCl2, 10 mM MgCl2 and 10 mM HEPES (pH 7.4) was used only at the seal formation step. Prior to the whole-cell recordings, the external seal enhancing solution was exchanged to the extracellular solution described above. hERG channel currents were recorded using the parallel EPC-10 patch-clamp amplifiers (HEKA Elektronik, Lambrecht/Pfalz, Germany), and low-pass filtered (10 kHz) with a 4-pole Bessel filter. Cell suspension and patch solutions were automatically added onto the four recording wells in the microfabricated disposable chip (NPC-16 Chip, Nanion Technologies, München, Germany). To obtain the inhibitory constants, hERG tail currents were evoked by repolarizing steps to −50 mV for 500 ms preceded by a 500-ms depolarisation potential of +20 mV at a holding potential of −80 mV with a 20-s sweep interval. Whole-cell currents were acquired and digitised at 5 kHz using Patchmaster (HEKA Elektronik, Lambrecht/Pfalz, Germany). The extracellular solution was exchanged to the extracellular solution containing each blocker via four pipette tips of NPC-16 Patchliner using a 4-fold volume of solution (40 µL) with a speed of 4 µL/s, and the exchanged blocker solution was applied for 100–200 s to the patch-clamped cells until blocker binding had reached equilibrium by monitoring hERG tail currents. Whole-cell recordings were analysed using the Patchmaster/Fitmaster (HEKA Elektronik, Lambrecht/Pfalz, Germany), IGOR Pro (WaveMetrics Inc., Portland, OR, USA), and the GraphPad Prism 4.0 (GraphPad Software, Inc., La Jolla, CA, USA) software.

Compound | remaining at 0.5 h, 1 µM [1] [%] | viability at 24 h, 5 µM [2] [%] | CYP450 (% remaining Activity at 10 μM) CYP2D6 (CYP2D6) [%] | CYP450 (% remaining Activity at 10 μM) CYP1A2 (CYP1A2) [%] | CYP450 (% remaining Activity at 10 μM) CYP3A4 (CYP3A4) [%] | CYP450 (% remaining Activity at 10 μM) CYP2C9 (CYP2C9) [%] | CYP450 (% remaining Activity at 10 μM) CYP2C19 (CYP2C19) [%] | IC50 (hERG channel) [µM]
CCOc1ccc(-n2c(SCC(=O)N(C)Cc3ccccc3)nc3sc4c(c3c2=O)CCN(C(C)=O)C4)cc1 [Compound 32] | < 10 | 88 | 91.7 | 117.3 | 49.3 | 30.9 | 23.3 | 6.53 ± 2.46
CCOc1ccc(-n2c(SCC(=O)N(CC)Cc3ccccc3)nc3sc4c(c3c2=O)CCN(C(C)=O)C4)cc1 [Compound 33] | < 10 | 104 | 82.0 | 150.5 | 56.6 | 32.8 | 35.7 | 2.77 ± 1.18
CCOc1ccc(-n2c(SCC(=O)NCc3ccc(Cl)cc3)nc3sc4c(c3c2=O)CCN(C(C)=O)C4)cc1 [Compound 34] | 0 | 97 | 92.6 | 160.6 | 15.0 | 32.9 | 56.8 | 4.13 ± 1.39
CCOc1ccc(-n2c(SCC(=O)Nc3ccc(Cl)cc3)nc3sc4c(c3c2=O)CCN(C(C)=O)C4)cc1 [Compound 35] | 0.1 | 107 | 113.8 | 120.0 | 70.7 | 64.0 | 72.0 | 30 ± 10.2
CCOc1ccc(-n2c(SCC(=O)NCc3ccc(C)cc3)nc3sc4c(c3c2=O)CCN(C(C)=O)C4)cc1 [Compound 36] | 0 | 96 | 98.9 | 123.6 | 17.3 | 50.4 | 92.7 | 22 ± 12.7
CCOc1ccc(-n2c(SCC(=O)Nc3ccc(OC)c(OC)c3)nc3sc4c(c3c2=O)CCN(C)C4)cc1 [Compound 48] | 63.4 | 106 | 57.8 | 35.8 | 20.7 | 33.7 | 20.3 | 
CCOc1ccc(-n2c(SCC(=O)N(CC)Cc3ccccc3)nc3sc4c(c3c2=O)CCN(C)C4)cc1 [Compound 51] | 82 | 107 | 61.4 | 98.7 | 44.1 | 105.8 | 52.5 | 10 ± 3.6
CCOc1ccc(-n2c(SCC(=O)NCc3ccc(Cl)cc3)nc3sc4c(c3c2=O)CCN(C)C4)cc1 [Compound 52] | 67.6 | 80 | 36.6 | 117.2 | 42.6 | 86.9 | 16.1 | 8.6 ± 0.83
CCOc1ccc(-n2c(SCC(=O)Nc3ccc(C)cc3)nc3sc4c(c3c2=O)CCN(C)C4)cc1 [Compound 55] | 49.1 | 127 | 59.2 | 69.2 | 23.0 | 43.0 | 31.2 | 5.63 ± 1.75
